Measurements published in patent US12533348B2, “Ferroportin-inhibitors for the use in the treatment of transfusion-dependent beta-thalassemia (TDT)” (Vifor (International) AG, priority 2019, dated 2026).
Values joined by “and” are separate entries in the source; they are usually repeats but may differ in a detail not shown here. Equal entries are not always repeated. “Also recorded” adds a separate entry of the source.

Columns and labels:
[1] = test system: Hbb^th3/+ mouse model of β-thalassemia intermedia; assay: Combination study: serum EPO (DuoSet ELISA); assay type: in vivo; details: for EPO: serum, th3/+ mice, day 23, DFX 30 mg/kg QD, Fpn127 120 mg/kg QD p.o., all animals, mean
Method: On day 23 (study end) 1 hour after dosing blood was collected by retro-orbital bleeding from pre-terminally anesthetized mice into BD Microtainer Tubes (Cat. 365967 and 365975) for determination of serum iron, transferrin, erythropoietin and compound exposure. Anesthetized animals were subsequently euthanized by cervical dislocation.
[formula] Serum EPO was measured using a mouse-specific DuoSet ELISA according to the manufacturer's instructions (R&D Systems, Cat. DY959). Plasma concentrations of Fpn127 and DFX were measured at GVK Biosciences, Hyderabad, IN. Flow Cytometric Analysis of Intracellular ROS, Mitochondria, and PS Exposure

[2] = test system: Hbb^th3/+ mouse model of β-thalassemia intermedia; assay: Combination study: organ weights and tissue iron (ICP-OES) in liver, spleen, kidney; details: for effect on relative spleen weight in th3/+ animals: end of study d23 (FIG. 4); for relative spleen weight: percent of body weight; for relative spleen weight / kidney Fe conc. / liver Fe conc. / spleen Fe conc.: th3/+ mice, DFX 30 mg/kg QD, Fpn127 120 mg/kg QD p.o., end of study (day 23), mean
Method: The aim of this study was to test whether the concurrent use of the iron chelator DFX administered once daily (QD) alone at 30 mg/kg or in combination with Fpn127 administered QD at 120 mg/kg for 3 weeks is causing any therapeutic interactions in a mouse model of β-thalassemia intermedia (Hbb^th3/+; B6; 129P—b1tm1Unc-b2tm1Unc/J, Jackson Laboratories, Stock Number: 002683).
Animals were euthanized 1 h after the last dose of DFX on study day 23 (dosing day 17).
On the final study day (day 23), spleen, liver, and kidneys were collected and snap frozen in liquid nitrogen for further analysis, as outlined below. Wet weight of spleen, liver, and kidneys were recorded.
Content of total Fe was determined in pieces of spleens, livers, and kidneys by ICP-OES in the Analytical Development group of Vifor (International) Ltd., St. Gallen.
Individual wet weights of organs were recorded. Individual values of total Fe were measured in livers, spleens, and kidneys. Individual values of total Fe content and concentration were calculated. Mean±SD of total Fe concentration and content in livers, spleens, and kidneys was calculated for each group.

[3] = test system: Hbb^th3/+ mouse model of β-thalassemia intermedia; assay: Combination study: complete blood counts (ProCyte Dx); assay type: in vivo; details: for HCT / Leukocytes / Lymphocytes / MCH / MCHC / MCV / Neutrophils / RBC / RDW / RET / Ret-He: th3/+ mice, DFX 30 mg/kg QD, Fpn127 120 mg/kg QD p.o., whole blood day 23, all animals, mean
Method: Complete blood counts were performed on fresh EDTA-blood on an automated blood cell analyzer (ProCyte Dx®, IDEXX Laboratories) in-house.

[4] = test system: Hbb^th3/+ mice; assay: ROS levels in mature RBCs of Hbb^th3/+ mice, oral dosing 60 mg/kg twice daily, no BT; assay type: in vivo, mouse
[5] = test system: Hbb^th3/+ mice; assay: Erythrocyte membrane-associated α-globin detection and quantification (TAU gel electrophoresis, densitometry); assay type: in vivo, mouse; details: Hbb^th3/+ animals vs vehicle-treated; TAU gel electrophoresis (FIG. 1)
Description: Fresh EDTA-blood samples of mice from each group were pooled (blood from 2 mice/pool), lysed, and membrane lipids were extracted, as previously described (Sorensen S, Rubin E, Polster H, Mohandas N, Schrier S. “The role of membrane skeletal-associated alpha-globin in the pathophysiology of beta-thalassemia.” Blood. 1990 Mar. 15; 75(6):1333-6). The insoluble membrane fraction was separated by electrophoresis on triton acetic acid urea (TAU) gels and visualized by Coomassie staining (Alter B et al, Br J Haematol 44:527, 1980). The signal intensity of the α-globin bands was quantified by densitometry using LAS-4000 Image Analyzer with Multi Gauge v.3 software (GE Healthcare Life Sciences).
Blood samples are washed three times with ice cold DPBS in the presence of 1 mM EDTA and lysed in an ice-cold hypotonic lysis buffer (5 mM sodium phosphate, pH 7.6 containing Complete Ultra protease inhibitors, Roche). The soluble Hb is collected to serve as standard on the gel. The erythrocyte ghosts are further washed three times by resuspending in hypotonic lysis buffer and centrifugation at 21'000×g. Membrane lipids are extracted in 50 mM sodium borate pH 8, 1 mM EDTA, 0.5% Triton X-100 (Sigma-Aldrich) and protease inhibitors. […]

[6] = test system: C57BL/6 WT mice; assay: Serum iron in C57BL/6 WT mice (previous study); assay type: in vivo, mouse; details: C57BL/6 WT mice dosed with 120 mg/kg for 20 h
[7] = test system: rats; assay: Serum iron after a single oral dose in rats; assay type: in vivo, rat; details: single oral dose of 100 mg/kg in rats

| Structure (SMILES) | EPO [1] | effect on relative spleen weight in th3/+ animals [2] | relative spleen weight ([2]; all animals) | relative spleen weight ([2]; females) | relative spleen weight ([2]; males) | kidney Fe conc. ([2]; all animals) | liver Fe conc. ([2]; all animals) | spleen Fe conc. ([2]; all animals) | kidney Fe conc. ([2]; females) | liver Fe conc. ([2]; females) | spleen Fe conc. ([2]; females) | kidney Fe conc. ([2]; males) | liver Fe conc. ([2]; males) | spleen Fe conc. ([2]; males) | HCT [3] | Leukocytes [3] | Lymphocytes [3] | MCH [3] | MCHC [3] | MCV [3] | also measured |
| --- | --- | --- | --- | --- | --- | --- | --- | --- | --- | --- | --- | --- | --- | --- | --- | --- | --- | --- | --- | --- | --- |
| O=C(O)c1ccc(-n2nc(-c3ccccc3O)nc2-c2ccccc2O)cc1 [DFX, deferasirox, reference compound] | 5277 ± 1710 pg/mL and 5277 pg/mL | no effect | 1.98±0.26% and 1.98% | 2.17% | 1.79% | 125.1 ± 22.2 µg/g and 125.1 µg/g | 196.3 ± 62.5 µg/g and 196.3 µg/g | 1553.0 ± 144.7 µg/g and 1553.0 µg/g | 126.6 µg/g | 241.2 µg/g | 1511.0 µg/g | 123.6 µg/g | 151.5 µg/g | 1602.0 µg/g | 27.4% | 8.9 10E3/μL | 7.4 10E3/μL | 10.4 pg | 25.4 g/dL | 41.1 fL | neutrophil counts ([3]; Hbb^th3/+ mice, day 23, potential inflammatory response): significantly increased; Neutrophils [3]: 1.2 10E3/μL; RBC [3]: 7.7 10E6/μL; RDW [3]: 47.0%; RET [3]: 1760 10E3/μL; Ret-He [3]: 12.8 pg |
| O=C(NCc1ncccc1F)c1coc(CCNCCc2nc3ccccc3[nH]2)n1 [Fpn127] | 3938 ± 1167 pg/mL and 3938 pg/mL | significantly reduced | 0.99±0.18% and 0.99% | 1.12% | 0.86% | 126.7 ± 23.6 µg/g and 126.7 µg/g | 332.2 ± 75.2 µg/g and 332.2 µg/g | 2738.0 ± 300.8 µg/g and 2738.0 µg/g | 138.9 µg/g | 371.8 µg/g | 2713.0 µg/g | 114.5 µg/g | 292.5 µg/g | 2760.0 µg/g | 31.2% | 5.7 10E3/μL | 5.0 10E3/μL | 9.9 pg | 27.4 g/dL | 36.4 fL | effect on EPO levels ([1]; Hbbth3/+ animals, day 23 (FIG. 10)): reduced EPO levels; effect on total liver iron concentration vs vehicle-treated th3/+ mice ([2]; end of study (FIG. 3)): no effect on liver iron concentration; effect on total spleen iron concentration vs vehicle-treated th3/+ mice ([2]; end of study (FIG. 4)): significantly increased; effect on total kidney iron concentration vs vehicle-treated Hbbth3/+ mice ([2]; end of study (FIG. 5)): significantly reduced; ROS levels in RBCs ([4]; 15 days of oral dosing 60 mg/kg twice daily (FIG. 2B), 60 mg/kg): decreased ROS levels; also recorded: further decreased; ROS levels in RBCs ([4]; day 8 of oral dosing 60 mg/kg twice daily (FIG. 2A)): decreased ROS levels; levels of toxic α-globin/heme aggregates in RBC membrane skeleton preparations [5]: significant dose-dependent decrease; leukocyte, neutrophil and lymphocyte counts ([3]; Hbb^th3/+ mice, day 23 (FIG. 8), for DFX alone: total leukocyte and lymphocyte counts): reduced to levels similar to WT; RBC indices (RBC counts, hematocrit, RDW, reticulocyte counts) ([3]; Hbbth3/+ mice, day 23 (FIG. 7)): significantly improved; Neutrophils [3]: 0.3 10E3/μL; RBC [3]: 9.9 10E6/μL; RDW [3]: 39.1%; RET [3]: 1332 10E3/μL; Ret-He [3]: 11.8 pg; serum iron in WT mice [6]: restored to the baseline levels; duration of reduction in serum iron [7]: at least 8 h |
